Converted amounts (≈) assume the structure as drawn.
Columns and labels:
M. smegmatis mc^2 155 = assay: Kill kinetics against M. smegmatis mc^2 155; type: cell-based; details: M. smegmatis mc^2 155, liquid culture, up to 4 days; (II) at 20-fold MIC50 (FIG. 1 legend 10×MIC50), BDQ 200×MIC50
M. bovis BCG cells = assay: microbe, parasite or virus in culture; type: cell-based; details: Mycobacterium tuberculosis variant bovis BCG, read-out: IC50 for intracellular ATP synthesis inhibition
[1] = system: human embryonic stem cell (hESC) line (E3); assay: hESC line (E3) genotoxicity and transcriptional program assays; type: cell-based; details: racemate of (VI) 100 nM in combination with 300 nM of (II)
Text: Further, a human embryonic stem cell (hESC) line (E3) was used to examine both potential drug-induced genotoxicity and perturbations of the hESC transcriptional program that lead to hESC differentiation.

M. tuberculosis H37Rv = assay: Antimycobacterial activity (growth inhibition, MIC50) against Mtb; type: cell-based; details: for MIC50: Mycobacterium tuberculosis, H37RV, read-out: Mtb, MIC50, [μM)
M. smegmatis mc2 155 = assay: Antimycobacterial activity (growth inhibition, MIC50) against M. smegmatis; type: cell-based; details: Mycolicibacterium smegmatis, MC2155, read-out: M. smeg., MIC50
[2] = Metabolic stability in mouse liver microsomes
[3] = system: M. bovis bacillus Calmette-Guérin (BCG); assay: microbe, parasite or virus in culture; type: cell-based; details: Mycobacterium tuberculosis variant bovis BCG, read-out: MIC50 in M. bovis BCG

Compound	bactericidal activity (kill kinetics) (M. smegmatis mc^2 155)	IC50 (M. bovis BCG cells) [µM]	MIC50 (M. tuberculosis H37Rv) [µM]	MIC50 (M. smegmatis mc2 155) [µM]	other results
COc1nc2ccc(Br)cc2cc1[C@@H](c1ccccc1)[C@@](O)(CCN(C)C)c1cccc2ccccc12 [BDQ, Bedaquiline, reference compound]	delayed bactericidal activity	0.0115			
CCSCCCOc1cccc(C(c2cc3cc(Br)ccc3nc2OC)C(O)(CCN(C)C)c2cc(OC)nc(OC)c2)c1OC (racemic) [Formula (VI)]		0.0034			alterations in the global transcriptional program [1]: nor induced major alterations; genotoxic effects [1]: did not show substantial genotoxic effects
CCNc1cc(C)nc(Nc2ccc3[nH]c(-c4ccccc4)nc3c2)n1			8.8 (≈ 3.03 µg/mL)	23.5 (≈ 8.09 µg/mL)	
CCNc1cc(C)nc(Nc2ccc3nc(-c4ccc(Cl)cc4)[nH]c3c2)n1 [Formula (II), N^2-(2-(4-Chlorophenyl)-1H-benzo[d]imidazol-5-yl)-N^4-ethyl-6-methylpyrimidine-2,4-diamine]	bactericidal	3.3	3	9.9	fold improvement of MIC50 (M. tuberculosis H37Rv; Mtb H37Rv, compared with cpd6 of WO 2018/151681 A2): 10 fold; CIint [2]: 46.8; CLhep [2]: 3.63 L/h/kg; T1/2 [2]: 29.6 min; MIC50 [3]: 6.8 µM
CCNc1cc(C)nc(Nc2ccc3nc(-c4cccc(Cl)c4)[nH]c3c2)n1 [Formula (III), N^2-(2-(3-Chlorophenyl)-1H-benzo[d]imidazol-5-yl)-N^4-ethyl-6-methylpyrimidine-2,4-diamine]			5.2	14.6	

— patent US12528793B2 (priority 2019, dated 2026)
